We go through 34 molecules from patent US8044069B2, “Compounds as calcium channel blockers” (Abbott Laboratories, priority 2008, dated 2011).

Broadly, the IC50 is the midpoint of a concentration-inhibition curve.

SMILES strings stand for the structures.

Sequence of human Cav2.2 (Q00975 whole entry): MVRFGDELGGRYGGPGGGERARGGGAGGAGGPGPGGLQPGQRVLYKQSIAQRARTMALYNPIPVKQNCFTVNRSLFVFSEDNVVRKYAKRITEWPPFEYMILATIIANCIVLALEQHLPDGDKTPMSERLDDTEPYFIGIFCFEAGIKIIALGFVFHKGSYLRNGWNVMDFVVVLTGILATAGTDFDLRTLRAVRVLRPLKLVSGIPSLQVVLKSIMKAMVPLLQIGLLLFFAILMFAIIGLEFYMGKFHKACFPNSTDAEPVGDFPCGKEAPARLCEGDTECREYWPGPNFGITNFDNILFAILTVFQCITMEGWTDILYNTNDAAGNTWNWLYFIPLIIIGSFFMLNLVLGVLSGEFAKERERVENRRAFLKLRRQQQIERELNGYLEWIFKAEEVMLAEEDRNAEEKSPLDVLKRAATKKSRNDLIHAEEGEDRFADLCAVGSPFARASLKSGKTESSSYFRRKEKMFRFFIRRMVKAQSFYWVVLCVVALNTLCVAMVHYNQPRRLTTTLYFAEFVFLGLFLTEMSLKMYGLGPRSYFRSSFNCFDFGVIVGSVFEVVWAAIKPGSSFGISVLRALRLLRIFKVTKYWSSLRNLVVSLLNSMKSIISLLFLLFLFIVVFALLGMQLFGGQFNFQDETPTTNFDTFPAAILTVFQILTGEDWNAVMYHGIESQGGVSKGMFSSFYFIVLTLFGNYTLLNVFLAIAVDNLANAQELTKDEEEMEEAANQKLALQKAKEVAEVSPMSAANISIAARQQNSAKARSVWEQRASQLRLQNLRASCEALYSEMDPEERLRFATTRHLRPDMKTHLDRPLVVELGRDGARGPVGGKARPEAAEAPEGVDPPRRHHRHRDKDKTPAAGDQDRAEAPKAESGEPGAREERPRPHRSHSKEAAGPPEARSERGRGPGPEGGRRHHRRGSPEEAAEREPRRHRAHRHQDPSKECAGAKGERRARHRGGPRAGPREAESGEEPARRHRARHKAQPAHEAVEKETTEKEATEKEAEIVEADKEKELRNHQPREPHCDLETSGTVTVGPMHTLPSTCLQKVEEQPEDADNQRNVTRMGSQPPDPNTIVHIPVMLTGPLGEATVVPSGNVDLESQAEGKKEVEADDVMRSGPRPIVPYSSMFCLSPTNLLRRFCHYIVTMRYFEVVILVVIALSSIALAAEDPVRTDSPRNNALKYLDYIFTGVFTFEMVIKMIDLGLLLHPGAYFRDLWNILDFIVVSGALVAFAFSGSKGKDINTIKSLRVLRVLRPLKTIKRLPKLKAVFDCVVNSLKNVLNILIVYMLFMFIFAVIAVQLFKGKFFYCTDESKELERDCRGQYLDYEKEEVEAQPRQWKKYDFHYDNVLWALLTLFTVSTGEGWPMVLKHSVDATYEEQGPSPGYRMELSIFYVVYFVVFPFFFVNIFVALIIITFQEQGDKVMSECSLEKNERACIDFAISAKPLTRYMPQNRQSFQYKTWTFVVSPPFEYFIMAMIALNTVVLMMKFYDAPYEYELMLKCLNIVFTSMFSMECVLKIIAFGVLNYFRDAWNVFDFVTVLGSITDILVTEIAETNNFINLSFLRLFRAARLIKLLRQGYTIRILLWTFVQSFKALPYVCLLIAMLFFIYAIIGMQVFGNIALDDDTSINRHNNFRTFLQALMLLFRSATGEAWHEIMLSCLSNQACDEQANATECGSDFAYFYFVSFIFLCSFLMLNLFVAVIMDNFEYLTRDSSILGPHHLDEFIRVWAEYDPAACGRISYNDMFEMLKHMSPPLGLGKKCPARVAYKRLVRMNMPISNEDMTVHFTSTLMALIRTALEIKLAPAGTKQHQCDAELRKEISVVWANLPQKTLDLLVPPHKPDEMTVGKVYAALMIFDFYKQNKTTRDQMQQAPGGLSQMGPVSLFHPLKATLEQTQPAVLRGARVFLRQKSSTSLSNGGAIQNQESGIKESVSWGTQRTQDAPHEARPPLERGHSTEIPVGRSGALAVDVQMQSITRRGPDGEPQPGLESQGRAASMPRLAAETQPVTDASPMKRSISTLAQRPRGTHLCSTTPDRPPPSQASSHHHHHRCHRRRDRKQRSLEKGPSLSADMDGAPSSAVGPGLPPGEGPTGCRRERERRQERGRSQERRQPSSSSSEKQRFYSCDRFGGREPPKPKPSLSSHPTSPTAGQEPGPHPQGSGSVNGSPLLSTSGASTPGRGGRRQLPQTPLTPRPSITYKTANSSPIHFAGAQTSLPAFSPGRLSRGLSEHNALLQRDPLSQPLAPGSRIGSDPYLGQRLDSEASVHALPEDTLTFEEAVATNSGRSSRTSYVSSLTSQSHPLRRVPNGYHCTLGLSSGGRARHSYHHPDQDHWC
Sequence of human Cav2.2 (P54289 25-951 partner limits assumed): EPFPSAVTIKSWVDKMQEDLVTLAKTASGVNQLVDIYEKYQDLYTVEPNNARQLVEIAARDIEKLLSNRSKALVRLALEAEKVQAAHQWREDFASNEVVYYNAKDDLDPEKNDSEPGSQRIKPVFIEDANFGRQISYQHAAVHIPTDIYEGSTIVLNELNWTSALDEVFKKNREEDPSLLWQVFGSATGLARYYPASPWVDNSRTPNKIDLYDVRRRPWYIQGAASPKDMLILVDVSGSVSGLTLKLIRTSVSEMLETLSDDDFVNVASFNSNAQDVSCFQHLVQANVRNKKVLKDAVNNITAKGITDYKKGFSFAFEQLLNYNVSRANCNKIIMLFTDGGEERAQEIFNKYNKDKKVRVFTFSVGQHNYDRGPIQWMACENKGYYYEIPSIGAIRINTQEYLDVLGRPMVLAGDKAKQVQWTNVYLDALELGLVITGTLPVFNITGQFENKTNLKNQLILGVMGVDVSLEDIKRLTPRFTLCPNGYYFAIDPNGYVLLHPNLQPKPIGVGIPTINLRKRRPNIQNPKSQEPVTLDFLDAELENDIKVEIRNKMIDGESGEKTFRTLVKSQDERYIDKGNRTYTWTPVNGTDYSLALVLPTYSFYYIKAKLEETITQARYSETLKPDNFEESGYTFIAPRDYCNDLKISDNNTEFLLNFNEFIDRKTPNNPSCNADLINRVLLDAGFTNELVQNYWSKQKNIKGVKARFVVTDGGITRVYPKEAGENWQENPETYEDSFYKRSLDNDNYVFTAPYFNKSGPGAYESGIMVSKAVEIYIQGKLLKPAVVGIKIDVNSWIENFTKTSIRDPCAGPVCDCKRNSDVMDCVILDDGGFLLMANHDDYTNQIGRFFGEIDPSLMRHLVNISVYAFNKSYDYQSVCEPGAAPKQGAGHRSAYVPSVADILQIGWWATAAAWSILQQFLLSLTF
Sequence of human Cav2.2 (P54289 952-1103 partner limits assumed): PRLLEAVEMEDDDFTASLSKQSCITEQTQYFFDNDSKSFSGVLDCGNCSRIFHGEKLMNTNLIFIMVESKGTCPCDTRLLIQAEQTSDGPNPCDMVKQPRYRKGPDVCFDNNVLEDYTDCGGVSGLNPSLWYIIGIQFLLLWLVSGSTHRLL
Sequence of human Cav2.2 (P54284 whole entry partner): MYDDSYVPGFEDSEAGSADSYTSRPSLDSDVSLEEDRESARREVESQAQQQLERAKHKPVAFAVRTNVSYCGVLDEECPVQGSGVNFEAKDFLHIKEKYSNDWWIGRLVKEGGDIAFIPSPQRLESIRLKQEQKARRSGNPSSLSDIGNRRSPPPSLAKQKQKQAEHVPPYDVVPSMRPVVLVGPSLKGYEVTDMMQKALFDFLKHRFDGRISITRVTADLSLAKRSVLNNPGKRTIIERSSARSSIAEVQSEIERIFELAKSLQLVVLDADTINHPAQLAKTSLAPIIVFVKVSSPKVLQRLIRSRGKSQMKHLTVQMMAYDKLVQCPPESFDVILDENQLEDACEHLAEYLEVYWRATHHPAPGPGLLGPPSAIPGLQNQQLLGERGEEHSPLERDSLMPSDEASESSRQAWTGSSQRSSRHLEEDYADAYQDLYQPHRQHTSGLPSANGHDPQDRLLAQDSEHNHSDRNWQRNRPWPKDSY

The test concerns the target human Cav2.2 (Homo sapiens, UniProt Q00975). Nature of the test: Assessment of calcium channel activity using FLIPR (Ca2+ influx in IMR32 cells). It counts as cell-based. To be noted: IMR32 cells endogenously expressing human Cav2.2; 60 minute pre-incubation; 2 μM nifedipine; depolarized with 80 mM KCl, 5 mM CaCl2. The procedure, abridged:
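FLIPR measured Ca2+ influx triggered by 80 mM KCl depolarization together with a step to 5 mM external CaCl2. Percent inhibition relative to uninhibited activity was fitted sigmoidally for IC50.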
For `O=C(CN1CCCC(c2ccccc2)(c2ccccc2)C1=O)N1CC(c2ccc(C(F)(F)F)cc2)C1` [Example 240, 1-(2-oxo-2-{3-[4-(trifluoromethyl)phenyl]azetidin-1-yl}ethyl)-3,3-diphenylpiperidin-2-one], the IC50 stood at 3.07 µM. Turning to `O=C(CN1CCCC(c2ccccc2)(c2ccccc2)C1=O)N1CCC(Oc2ccc(F)c(F)c2)CC1` [Example 160, 1-{2-[4-(3,4-difluorophenoxy)piperidin-1-yl]-2-oxoethyl}-3,3-diphenylpiperidin-2-one], the IC50 turned out to be 3.04 µM. With `O=C(CN1CCC(c2ccccc2)(c2ccccc2)C1=O)N1Cc2ccc(C(F)(F)F)cc2C1` [Example 20, 1-{2-oxo-2-[5-(trifluoromethyl)-1,3-dihydro-2H-isoindol-2-yl]ethyl}-3,3-diphenylpyrrolidin-2-one], the IC50 worked out at 2.82 µM. On to `O=C(CN1CCCC(c2ccccc2)(c2ccccc2)C1=O)N1CCC(c2ccc(F)cc2)(c2ccc(F)cc2)C1` [Example 205, 1-{2-[3,3-bis(4-fluorophenyl)pyrrolidin-1-yl]-2-oxoethyl}-3,3-diphenylpiperidin-2-one], for which the IC50 came to 3.32 µM. `O=C1N(CCN2CCN(c3cccc(C(F)(F)F)c3)CC2)CCC1(c1ccc(F)cc1)c1ccc(F)cc1` [Example 111, 3,3-bis(4-fluorophenyl)-1-(2-{4-[3-(trifluoromethyl)phenyl]piperazin-1-yl}ethyl)pyrrolidin-2-one]: the IC50 is 3.94 µM. With `CN(C(=O)CN1CCCC(c2ccccc2)(c2ccccc2)C1=O)C1CCN(Cc2cccc(C(F)(F)F)c2)CC1` [Example 197, N-methyl-2-(2-oxo-3,3-diphenylpiperidin-1-yl)-N-{1-[3-(trifluoromethyl)benzyl]piperidin-4-yl}acetamide] the figure was 1 µM; with `O=C1N(CCCN2CCN(c3ncccn3)CC2)CCCC1(c1ccc(F)cc1)c1ccc(F)cc1` [Example 135, 3,3-bis(4-fluorophenyl)-1-[3-(4-pyrimidin-2-ylpiperazin-1-yl)propyl]piperidin-2-one], 3.01 µM; with `O=C(CN1CCCC(c2ccccc2)(c2ccccc2)C1=O)N1CCN(C(c2ccccc2)c2ccccc2)C(=O)C1` [Example 83, 1-benzhydryl-4-[(2-oxo-3,3-diphenylpiperidin-1-yl)acetyl]piperazin-2-one], 1.23 µM.

`O=C1N(Cc2nc(-c3ccc(C(F)(F)F)cc3)no2)CCC1(c1ccccc1)c1ccccc1` [Example 62, 3,3-diphenyl-1-({3-[4-(trifluoromethyl)phenyl]-1,2,4-oxadiazol-5-yl}methyl)pyrrolidin-2-one]: the IC50 amounted to 8.71 µM.

As for `O=C(CN1CCCC(c2ccccc2)(c2ccccc2)C1=O)N1CCN(Cc2cccc(Cl)c2)CC1` [Example 81, 1-{2-[4-(3-chlorobenzyl)piperazin-1-yl]-2-oxoethyl}-3,3-diphenylpiperidin-2-one], the IC50 worked out at 1.32 µM. Consider `O=C(CN1CCCC(c2ccccc2)(c2ccccc2)C1=O)N1CCC(C(O)(c2ccccc2)c2ccccc2)CC1` [Example 78, 1-(2-{4-[hydroxy(diphenyl)methyl]piperidin-1-yl}-2-oxoethyl)-3,3-diphenylpiperidin-2-one], for which the 50% inhibitory concentration (IC50) was determined as 1.74 µM. In the case of `O=C1N(Cc2nc(-c3ccc(C(F)(F)F)nc3)no2)CCCC1(c1ccccc1)c1ccccc1` [Example 177, 3,3-diphenyl-1-({3-[6-(trifluoromethyl)pyridin-3-yl]-1,2,4-oxadiazol-5-yl}methyl)piperidin-2-one] it was 3.37 µM. In the case of `CC(CNC(=O)CN1CCC(c2ccc(F)cc2)(c2ccc(F)cc2)C1=O)(c1ccccc1)c1ccccc1` [Example 59, 2-[3,3-bis(4-fluorophenyl)-2-oxopyrrolidin-1-yl]-N-(2,2-diphenylpropyl)acetamide], the IC50 turned out to be 2.38 µM. Consider `O=C(CN1CCC(c2ccc(F)cc2)(c2ccc(F)cc2)C1=O)N1C[C@@H]2CCCN(Cc3cccc(C(F)(F)F)c3)[C@@H]2C1` [Example 210, 3,3-bis(4-fluorophenyl)-1-(2-oxo-2-{(4aS,7aS)-1-[3-(trifluoromethyl)benzyl]octahydro-6H-pyrrolo[3,4-b]pyridin-6-yl}ethyl)pyrrolidin-2-one], for which the half-inhibitory concentration (IC50) was 0.96 µM. With `O=C1N(Cc2nc(-c3cc(F)cc(F)c3)no2)CCC1(c1ccccc1)c1ccccc1` [Example 215, 1-{[3-(3,5-difluorophenyl)-1,2,4-oxadiazol-5-yl]methyl}-3,3-diphenylpyrrolidin-2-one], the IC50 is 6.89 µM.

Turning to `CC(C)(C)OC(=O)N1CCN(CC(=O)N2CCN(C(c3ccccc3)c3ccccc3)CC2)C(=O)C1c1ccccc1` (stereo not shown) [Example 101, tert-butyl 4-[2-(4-benzhydrylpiperazin-1-yl)-2-oxoethyl]-3-oxo-2-phenylpiperazine-1-carboxylate], the IC50 amounted to 1.77 µM. On to `O=C(CN1CCC(c2ccc(C(F)(F)F)cc2)C1=O)N1Cc2ccc(F)cc2C1` (stereo not shown) [Example 266, 1-[2-(5-fluoro-1,3-dihydro-2H-isoindol-2-yl)-2-oxoethyl]-3-[4-(trifluoromethyl)phenyl]pyrrolidin-2-one], for which the IC50 turned out to be 10.1 µM. Turning to `Nc1ccc(-c2noc(CN3CCC(c4ccccc4)(c4ccccc4)C3=O)n2)cn1` [Example 234, 1-{[3-(6-aminopyridin-3-yl)-1,2,4-oxadiazol-5-yl]methyl}-3,3-diphenylpyrrolidin-2-one], the IC50 was determined as 6.54 µM. As for `O=C(CN1CCC(c2ccc(F)cc2)C1=O)N1Cc2ccc(C(F)(F)F)cc2C1` (stereo not shown) [Example 216, 3-(4-fluorophenyl)-1-{2-oxo-2-[5-(trifluoromethyl)-1,3-dihydro-2H-isoindol-2-yl]ethyl}pyrrolidin-2-one], the IC50 was 9.43 µM.

Turning to `COc1ccc(C2(c3ccc(OC)cc3)CCCN(CCN(C)C3Cc4ccccc4C3)C2=O)cc1` [Example 113, 1-{2-[2,3-dihydro-1H-inden-2-yl(methyl)amino]ethyl}-3,3-bis(4-methoxyphenyl)piperidin-2-one], the IC50 came to 3.19 µM. Turning to `O=C(CN1CCC(c2ccc(F)cc2)(c2ccc(F)cc2)C1=O)Nc1cccc(C(F)(F)F)n1` [Example 226, 2-[3,3-bis(4-fluorophenyl)-2-oxopyrrolidin-1-yl]-N-[6-(trifluoromethyl)pyridin-2-yl]acetamide], the IC50 is 2.46 µM. Take `CC(CNC(=O)CN1CCCC(c2ccccc2)(c2ccccc2)C1=O)(c1ccccc1)c1ccccc1` [Example 77, N-(2,2-diphenylpropyl)-2-(2-oxo-3,3-diphenylpiperidin-1-yl)acetamide]: the IC50 came out at 1.71 µM. In the case of `O=C(CN1CCC(c2ccc(F)cc2)C1=O)N1CCc2ccc(C(F)(F)F)cc2C1` (stereo not shown) [Example 254, 3-(4-fluorophenyl)-1-{2-oxo-2-[7-(trifluoromethyl)-3,4-dihydroisoquinolin-2(1H)-yl]ethyl}pyrrolidin-2-one] it was 4.32 µM; in that of `O=C(CCCN1CCC(c2ccccc2)(c2ccccc2)C1=O)N1Cc2ccc(C(F)(F)F)cc2C1` [Example 223, 1-{4-oxo-4-[5-(trifluoromethyl)-1,3-dihydro-2H-isoindol-2-yl]butyl}-3,3-diphenylpyrrolidin-2-one], 2.04 µM; in that of `O=C(CN1CCCC(c2ccccc2)(c2ccccc2)C1=O)N1CCC(c2ccccc2)(c2ccccc2)C1` [Example 174, 1-[2-(3,3-diphenylpyrrolidin-1-yl)-2-oxoethyl]-3,3-diphenylpiperidin-2-one], 2.43 µM. As for `O=C1N(CCN2CCN(c3ncccn3)CC2)CCCC1(c1ccc(F)cc1)c1ccc(F)cc1` [Example 136, 3,3-bis(4-fluorophenyl)-1-[2-(4-pyrimidin-2-ylpiperazin-1-yl)ethyl]piperidin-2-one], the IC50 amounted to 3.32 µM. In the case of `O=C(CN1CCC(c2ccccc2)(c2ccccc2)C1=O)N1CCN(c2ccc(F)cc2)CC1` [Example 54, 1-{2-[4-(4-fluorophenyl)piperazin-1-yl]-2-oxoethyl}-3,3-diphenylpyrrolidin-2-one] it was 2.55 µM; in that of `O=C(CN1CCC(c2ccc(F)cc2)(c2ccc(F)cc2)C1=O)Nc1ccc(C(F)(F)F)nc1` [Example 224, 2-[3,3-bis(4-fluorophenyl)-2-oxopyrrolidin-1-yl]-N-[6-(trifluoromethyl)pyridin-3-yl]acetamide], 3.88 µM. With `O=C(CN1CCCC(c2ccccc2)C1=O)N1Cc2ccc(F)cc2C1` (stereo not shown) [Example 95, 1-[2-(5-fluoro-1,3-dihydro-2H-isoindol-2-yl)-2-oxoethyl]-3-phenylpiperidin-2-one] the figure was 34.8 µM; with `O=C(CN1CCCC(c2ccccc2)(c2ccccc2)C1=O)NC1CN(Cc2ccc(F)c(C(F)(F)F)c2)C1` [Example 198, N-{1-[4-fluoro-3-(trifluoromethyl)benzyl]azetidin-3-yl}-2-(2-oxo-3,3-diphenylpiperidin-1-yl)acetamide], 0.72 µM; with `O=C(CN1CCC(c2ccccc2)(c2ccccc2)C1=O)NCc1ncco1` [Example 168, N-(1,3-oxazol-2-ylmethyl)-2-(2-oxo-3,3-diphenylpyrrolidin-1-yl)acetamide], above 30 µM. For `COc1cccc(C2(C(C)C)CCCN(CCCN(C)CCc3ccc(F)cc3)C2=O)c1` (stereo not shown) [Example 129, 1-{3-[[2-(4-fluorophenyl)ethyl](methyl)amino]propyl}-3-isopropyl-3-(3-methoxyphenyl)piperidin-2-one], the IC50 was 1.14 µM.

With `O=C1N(Cc2nc(-c3ccc(O)cc3)no2)CCCC1(c1ccccc1)c1ccccc1` [Example 206, 1-{[3-(4-hydroxyphenyl)-1,2,4-oxadiazol-5-yl]methyl}-3,3-diphenylpiperidin-2-one], the IC50 came to 4.89 µM.

Take `O=C1N(Cc2nc(-c3cnccc3C(F)(F)F)no2)CCC1(c1ccccc1)c1ccccc1` [Example 220, 3,3-diphenyl-1-({3-[4-(trifluoromethyl)pyridin-3-yl]-1,2,4-oxadiazol-5-yl}methyl)pyrrolidin-2-one]: the IC50 is 1.99 µM.
